Data reported in patent US20250171417A1, “HETEROCYCLIC DERIVATIVE, AND COMPOSITION AND PHARMACEUTICAL USE THEREOF” (Xizang Haisco Pharmaceutical Co., Ltd., priority 2021, published 2025).
Where two headings read alike, the source gives them in different places.

Test system: Prostate cancer cells 22RV1
Test: Experiment on inhibiting 22RV1 cell proliferation (CellTiter-Glo, 7 days)
Format: cell-based
Conditions: Homo sapiens, 168 h, 22RV1 cells, 7 days incubation, read-out: IC50 values for inhibition of 22RVI cells
Experimental: Prostate cancer cells 22RV1 were purchased from ATCC, the cell medium was RPMI 1640+10% FBS, and the cells were cultured in an incubator at 37° C. under 5% CO2. On day 1, the cells in the exponential growth phase were collected. With a 1% css-FBS phenol red-free medium, the cell suspension was adjusted to a corresponding concentration, plated at 2000 cells/well and incubated overnight. On day 2, compounds at different concentrations were added, and the plate was placed in the incubator and incubated for further 7 days. After the incubation was completed, according to operation instructions for a CellTiter-Glo kit (Promega, G7573), 50 μL of CellTiter-Glo reagents, which were already pre-melted and equilibrated to room temperature, were added to each well, and the mixtures were uniformly mixed for 2 min using a microplate shaker. The plate was placed at room temperature for 10 min. and then […] signal values were measured using a microplate reader (PHERAstar FSX). The results were processed according to formula (I), the inhibition rate of the compound at different concentrations was calculated, and the IC50 value of the compound with an inhibition rate of 50% was calculated using origin9.2 software with DoseResp function, wherein RLUcompound was the readout of the treated group, and RLUcontrol was the average value of the DMSO vehicle control group.

[1] = cells without a unit of their own (μM)
[2] = cells with nM printed beside the value

Row | SMILES | IC50 [1] [µM] | IC50 [2] [µM]
1 | CCC(C)(C(=O)Nc1ccc(C#N)c(C(F)(F)F)c1)n1cc(C#CC2CN(c3ccc4c(c3)C(=O)N(C3CCC(=O)NC3=O)C4=O)C2)cn1 (stereo not drawn) [Compound 46, N-(4-cyano-3-(trifluoromethyl)phenyl)-2-(4-((1-(2-(2,6-dioxopiperidin-3-yl)-1,3-dioxoisoindolin-S-yl)azetidin-3-yl)ethynyl)-1H-pyrazol-1-yl)-2-methylbutanamide] | < 1 | 
2 | N#Cc1ccc(NC(=O)C2(n3cc(C#CC4CN(c5ccc6c(c5)C(=O)N(C5CCC(=O)NC5=O)C6=O)C4)cn3)CCCC2)cc1C(F)(F)F (stereo not drawn) [Compound 48, N-(4-cyano-3-(trifluoromethyl)phenyl)-1-(4-((1-(2-(2,6-dioxopiperidin-3-yl)-1,3-dioxoisoindolin-5-yl)azetidin-3-yl)ethynyl)-1H-pyrazol-1-yl)cyclopentane-1-carboxamide] |  | < 0.1
3 | N#Cc1ccc(NC(=O)C2(n3cc(C#CC4CN(c5ccc6c(c5)C(=O)N(C5CCC(=O)NC5=O)C6=O)C4)cn3)CCC2)cc1N1CCCC1 (stereo not drawn) [Compound 50, N-(4-cyano-3-(pyrrolidin-1-yl)phenyl)-1-(4-((1-(2-(2,6-dioxopiperidin-3-yl)-1,3-dioxoisoindolin-5-yl)azetidin-3-yl)ethynyl)-1H-pyrazol-1-yl)cyclobutane-1-carboxamide] |  | < 0.1
4 | CC(C)(C(=O)Nc1ccc(C(F)(F)F)cc1-n1cccn1)n1cc(C#CC2CN(c3ccc4c(c3)C(=O)N(C3CCC(=O)NC3=O)C4=O)C2)cn1 (stereo not drawn) [Compound 51, N-(2-(1H-pyrazol-1-yl)-4-(trifluoromethyl)phenyl)-2-(4-((1-(2-(2,6-dioxopiperidin-3-yl)-1,3-dioxoisoindolin-5-yl)azetidin-3-yl)ethynyl)-1H-pyrazol-1-yl)-2-methylpropanamide] |  | < 0.05
5 | CNC(=O)c1cc(C(F)(F)F)ccc1NC(=O)C(C)(C)n1cc(C#CC2CN(c3ccc4c(c3)C(=O)N(C3CCC(=O)NC3=O)C4=O)C2)cn1 (stereo not drawn) [Compound 52, 2-(2-(4-((1-(2-(2,6-dioxopiperidin-3-yl)-1,3-dioxoisoindolin-5-yl)azetidin-3-yl)ethynyl)-1H-pyrazol-1-yl)-2-methylpropanamido)-N-methyl-5-(trifluoromethyl)benzamide] | < 1 | 
6 | O=C1CCC(N2C(=O)c3ccc(N4CC(C#Cc5cnn(C6(C(=O)Nc7ccc(C(F)(F)F)cc7Cl)CCCC6)c5)C4)cc3C2=O)C(=O)N1 (stereo not drawn) [Compound 69, N-(2-chloro-4-(trifluoromethyl)phenyl)-1-(4-((1-(2-(2,6-dioxopiperidin-3-yl)-1,3-dioxoisoindolin-S-yl)azetidin-3-yl)ethynyl)-1H-pyrazol-1-yl)cyclopentane-1-carboxamide] |  | < 0.05
7 | O=C1CCC(N2C(=O)c3ccc(N4CC(F)(C#Cc5cnn(C6(C(=O)Nc7ccc(C(F)(F)F)cc7Cl)CCC6)c5)C4)cc3C2=O)C(=O)N1 (stereo not drawn) [Compound 71] |  | < 0.05
8 | O=C1CCC(N2C(=O)c3ccc(N4CC(C#Cc5cnn(C6(C(=O)Nc7ccc(C(F)(F)F)cc7Cl)CC6)c5)C4)cc3C2=O)C(=O)N1 (stereo not drawn) [Compound 72, N-(2-chloro-4-(trifluoromethyl)phenyl)-1-(4-((1-(2-(2,6-dioxopiperidin-3-yl)-1,3-dioxoisoindolin-5-yl)azetidin-3-yl)ethynyl)-1H-pyrazol-1-yl)cyclopropane-1-carboxamide] |  | < 0.05
9 | O=C1CCC(N2C(=O)c3ccc(N4CC(C#Cc5cnn(C6(C(=O)Nc7ccc(C(F)(F)F)c(C8CC8)c7)CCC6)c5)C4)cc3C2=O)C(=O)N1 (stereo not drawn) [Compound 75, N-(3-cyclopropyl-4-(trifluoromethyl)phenyl)-1-(4-((1-(2-(2,6-dioxopiperidin-3-yl)-1,3-dioxoisoindolin-5-yl)azetidin-3-yl)ethynyl)-1H-pyrazol-1-yl)cyclobutane-1-carboxamide] |  | < 0.05
10 | CC(C(=O)Nc1ccc(C#N)c(C(F)(F)F)c1)n1cc(C#CC2CN(c3ccc4c(c3)C(=O)N(C3CCC(=O)NC3=O)C4=O)C2)cn1 (stereo not drawn) [Compound 77, N-(4-cyano-3-(trifluoromethyl)phenyl)-2-(4-((1-(2-(2,6-dioxopiperidin-3-yl)-1,3-dioxoisoindolin-5-yl)azetidin-3-yl)ethynyl)-1H-pyrazol-1-yl) propanamide] |  | < 0.05
11 | O=C1CCC(N2C(=O)c3ccc(N4CCC5(CC4)CC(CN4CCC(c6cnn(C7(C(=O)Nc8ccc(C(F)(F)F)cc8Cl)CCC7)c6)CC4)C5)cc3C2=O)C(=O)N1 (stereo not drawn) [Compound 85, N-(2-chloro-4-(trifluoromethyl)phenyl)-1 (4-(1-((7-(2-(2,6-dioxopiperidin-3-yl)-1,3-dioxoisoindolin-5-yl)-7-azaspiro[3.5]nonan-2-yl)methyl)piperidin-4-yl)-1H-pyrazol-1-yl)cyclobutane-1-carboxamide] | < 1 | 
12 | O=C1CCC(N2C(=O)c3ccc(N4CC5CC(CN6CCC(c7cnn(C8(C(=O)Nc9ccc(C(F)(F)F)cc9Cl)CCC8)c7)CC6)CC5C4)cc3C2=O)C(=O)N1 (stereo not drawn) [Compound 91, N-(2-chloro-4-(trifluoromethyl)phenyl)-1-(4-(1-((2-(2-(2,6-dioxopiperidin-3-yl)-1,3-dioxoisoindolin-5-yl)octahydrocyclopenta[c]pyrrol-5-yl)methyl)piperidin-4-yl)-1H-pyrazol-1-yl)cyclobutane-1-carboxamide] | < 1 | 

The remaining lines, values ahead:

Row | IC50 [1] [µM] | IC50 [2] [µM] | SMILES
13 |  | < 0.05 | Cc1cc(C(F)(F)F)ccc1NC(=O)C(C)(C)n1cc(C#CC2CN(c3ccc4c(c3)C(=O)N(C3CCC(=O)NC3=O)C4=O)C2)cn1 (stereo not drawn) [Compound 59]
14 |  | < 0.05 | CC(C)(C(=O)Nc1ccc(C#N)c2ccccc12)n1cc(C#CC2(F)CN(c3ccc4c(c3)C(=O)N(C3CCC(=O)NC3=O)C4=O)C2)cn1 (stereo not drawn) [Compound 68, N-(4-cyanonaphthalen-1-yl)-2-(4-(2-(1-(2-(2,6-dioxopiperidin-3-yl)-1,3-dioxo-2,3-dihydro-1H-isoindol-5-yl)-3-fluoroazetidin-3-yl)ethynyl)-1H-pyrazol-1-yl)-2-methylpropanamide]
15 | < 1 |  | N#Cc1ccc(NC(=O)C2(n3cc(C#CC4CN(c5cc6c(cc5F)C(=O)N(C5CCC(=O)NC5=O)C6=O)C4)cn3)CCC2)c2ccccc12 (stereo not drawn) [Compound 80]
16 | < 1 |  | CC(C)(C(=O)Nc1ccc(C#N)c2ccccc12)n1cc(C#CC2CN(c3cc4c(cc3F)C(=O)N(C3CCC(=O)NC3=O)C4=O)C2)cn1 (stereo not drawn) [Compound 81]
17 |  | < 0.05 | CC(C)(C(=O)Nc1ccc(C#N)cc1Br)n1cc(C#CC2CN(c3ccc4c(c3)C(=O)N(C3CCC(=O)NC3=O)C4=O)C2)cn1 (stereo not drawn) [Compound 82, N-(2-bromo-4-cyanophenyl)-2-(4-((1-(2-(2,6-dioxopiperidin-3-yl)-1,3-dioxoisoindolin-5-yl)azetidin-3-yl)ethynyl)-1H-pyrazol-1-yl)-2-methylpropanamide]
18 | < 1 |  | CC(C)(C(=O)Nc1ccc(C(F)(F)F)cc1-c1ccccc1)n1cc(C#CC2CN(c3ccc4c(c3)C(=O)N(C3CCC(=O)NC3=O)C4=O)C2)cn1 (stereo not drawn) [Compound 112, 2-(4-((1-(2-(2,6-dioxopiperidin-3-yl)-1,3-dioxoisoindolin-5-yl)azetidin-3-yl)ethynyl)-1H-pyrazol-1-yl)-2-methyl-N-(5-(trifluoromethyl)-[1,1′-biphenyl]-2-yl) propanamide]
